The text below walks through data of patent US9597347B2, “Compositions for treating obesity and insulin resistance disorders” (President and Fellows of Harvard College, priority 2003, dated 2017).

Structures are written as SMILES.

For assay [1], the system named is H4IIEC3 cells. In words: Oxidation of 14C-palmitate in H4IIEC3 cells. In kind it is cell-based. To be noted: resveratrol 10 μM in 1% DMSO, AICAR 500 μM in H2O, metformin 1 mM in H2O; 4 hours; vehicle = 1. Here is the method: (§1) Oxidation of 14C-palmitate to acid-soluble products (modified from H4IIEC3 cells [Witters, L. A. and B. E. Kemp, Insulin activation of acetyl-CoA carboxylase accompanied by inhibition of the 5′-AMP-activated protein kinase. J Biol Chem, 1992. 267(5): p. 2864-7] and HepG2 cells were maintained as described above. Cells (10^6 cells/T25) were seeded in a T25 flask one day prior to the experiment. On the day of the experiment cells were washed with assay buffer (114 mM NaCl, 4.7 mM KCL, 1.2 mM KH2PO4, 1.2 mM MgSO4, 11 mM glucose) before labeling with 14C-palmitate (0.4 μCi/ml) in presence of vehicle, or resveratrol (10 μM), or AICAR (500 μM) for 4 hours.
(§2) At the end of incubation, the cap of each T25 flask was replaced with a stopper and a 1′×1.5″ Whatman filter paper soaked with 250 μl 2N NaOH. Each flask was injected with 2 ml of 6N HCL, placed in a horizontal position for 10 minutes and left standing overnight. The next morning, 1 ml H2O and 61 μl NaOH were added to a glass scintillation vial and the filter papers from each T25 flask were transferred to their respective vial. 10 ml Aquasol was added to each vial and allowed to stand for 2 hours, after which the vials were vortexed to dissolve the […] and counted in the scintillation counter. The results were expressed as nmols/h/106 cells and shown as the fold effect. ^14CO2 production ranged from 0.3 to 1.8 nmols/h/106 cells. The experiment was repeated three times.

The subject of assay [2] is HepG2 cells. In words: Oxidation of 14C-palmitate in HepG2 cells. It is filed as cell-based. Particulars: resveratrol 10 μM in 1% DMSO, AICAR 500 μM in H2O, metformin 1 mM in H2O; 4 hours; vehicle = 1. The method, then: as §1, §2
Assay [3] concerns DAF-16 mutant worms (mgDf47). The experiment in a line: Nile Red staining of fat accumulation in DAF-16 mutant worms (mgDf47). It is filed as in vivo, C. elegans. To be noted: defective in insulin-signaling. Here is the method: Sir2.1, which is activated by resveratrol, acts via the transcription factor DAF-16 to prolong lifespan in […] (Tissenbaum and Guarente (2001) Nature 410:227).
C. elegans strains were maintained as described at 25° C., except when noted (Brenner (1974) Genetics 77:71). The wild type reference strain was N2 Bristol; the mutant strains were: sir-2.1(ok434), T01C8.1(ok524), and daf-16 (mgDf47). Daf-16 (mgDf47) was obtained from the Ruvkun laboratory, MGH; all other strains were obtained from the Caenorhabditis Genetics Center (from C. Elegans Gene Knockout Consortium).
Synchronized starved L1 worms were grown in the presence of Nile Red. Strains were grown on NGM plates at 25° C. for approximately 48 hours until the young adult stage was reached. 20-30 young adult worms were then washed 2× with M9 buffer and transferred to new NGM/Nile red experimental plates that contained either OP50 or HTT5 E. coli carrying the L4440 RNAi control vector. For experiments comparing the effect of nicotinamide and resveratrol on fat mobilization, OP50 plates were coated with vehicle alone or Nicotinamide (in PBS), or vehicle alone and Resveratrol (in Ethanol or DMSO).

The subject of assay [4] is phosphorylation of AMPK on threonine 172 and of ACC on serine 79. In words: Western analysis of AMPK and ACC phosphorylation in CHO-HIR cells. In kind it is cell-based. The method, then:
CHO-HIR mammalian cells were washed in PBS and incubated overnight in serum-free DMEM before treatment with 500 μM AICAR (positive control) or 12.5 μM, 25 μM or 50 μM resveratrol. Cells were harvested after 30 minutes and lysates were immediately boiled in SDS and subjected to Western analysis with site-specific antibodies. Phosphorylation of AMPK at Thr172 indicates activation of the kinase. Active AMPK phosphorylates and inactivates ACC at serine 79.
CHO cells were also treated with 500 μM AICAR (positive control), DMSO, 100 nM, 500 nM, 2.5 μM, 12.5 μM, 25 μM, or 50 μM resveratrol and subject to Western Blot analysis as described above. Western blots were stripped and re-probed for phosphorylated (active) AMPK, total AMPK, phosphorylated acetyl CoA carboxylase (ACC), which is the downstream target of AMPK, and tubulin, which served as a loading control.

Assay [5] concerns TNF-alpha treated adipocytes. The experiment in a line: Radioactive glucose uptake in TNF-alpha treated, insulin resistant adipocytes. Particulars: resveratrol 5 μM or 15 μM; roziglitazone 4 μM (positive control); with TNF-alpha. In kind it is cell-based. The method, then: Adipocytes were treated with TNF-alpha to induce insulin resistance as described in Kabayama et al., Glycobiology 15:21-29 (2005) and Wu et al., Mol. Cell 3:151-8 (1999).

On to `Oc1ccc(/C=C/c2cc(O)cc(O)c2)cc1` [resveratrol, 3,5,4′-Trihydroxy-trans-stilbene], for which the “14C-CO2 production (Fold Effect)” value in assay [1] is given as 2.3 Fold Effect; in assay [2], 6 Fold Effect. Moreover, in assay [3], the “fat mobilization and fat accumulation” value was “stimulates fat mobilization and a decrease in fat accumulation”. For the same compound, the “activation of AMPK (phosphorylated AMPK and ACC)” value in assay [4] (CHO cells, 100 nM, 500 nM, 2.5, 12.5, 25 or 50 μM) is “activation of AMPK in CHO cells with increasing concentrations of resveratrol”. Also, in assay [4] (resveratrol 12.5, 25 or 50 μM, AICAR 500 μM (positive control), 30 minutes, serum-free overnight), the “phosphorylation of AMPK (threonine 172) and ACC (serine 79)” value was “stimulates phosphorylation of AMPK and ACC”. In addition, the “radioactive glucose uptake / insulin sensitivity” value in assay [5] is listed as “partially rescued the TNF-alpha treated adipocytes restoring insulin sensitivity”.
